The text below walks through data of PubChem BioAssay (NCI).

Among the test systems are OVCAR-8 ovarian; EKVX NSCLC; SNB-19 CNS; NCI-H522 lung; BT-549 breast; SK-MEL-2 melanoma; NCI-H460 lung; A498 renal; SF-295 CNS; SN12C renal.
Holding throughout (assay): NCI-60 cell line screen, 48 h

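Cells were grown in 96-well plates and exposed to each compound for 48 hours at five concentrations; endpoints were interpolated linearly between bracketing concentrations, or set to the highest concentration if not reached. TGI marks complete inhibition of growth.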

Consider `COc1ccc2nc(-c3ccc(N)cc3)sc2c1`, for which the TGI with OVCAR-8 ovarian, in the assay on EKVX NSCLC, in the assay with SNB-19 CNS, in the assay on NCI-H522 lung, in the assay on BT-549 breast and in the assay on SK-MEL-2 melanoma was above 100 µM throughout. Moreover, the TGI with NCI-H460 lung, with A498 renal and in the assay on SF-295 CNS was above 100 µM throughout.

`O=C1c2ccccc2CC12Cc1ccc3c(c1C2=O)CCCC3` (configuration not stated): the TGI in the assay with OVCAR-8 ovarian, in the assay with EKVX NSCLC, with SNB-19 CNS, with NCI-H522 lung, with BT-549 breast and in the assay on SK-MEL-2 melanoma was above 100 µM each time. The TGI in the assay on NCI-H460 lung, in the assay on SN12C renal, with A498 renal and with SF-295 CNS was above 100 µM throughout.

Turning to `NS(=O)(=O)c1ccc(Nc2c3ccccc3nc3c(C(=O)NC(CO)(CO)CO)cccc23)cc1`, the TGI was 0.595 µM with OVCAR-8 ovarian; above 1 µM in the assay with EKVX NSCLC; 0.783 µM in the assay on SNB-19 CNS; 0.306 µM in the assay with NCI-H522 lung; 0.322 µM in the assay with BT-549 breast; 0.396 µM with SK-MEL-2 melanoma. Further, the TGI is 0.248 µM in the assay with NCI-H460 lung, 0.695 µM in the assay with SN12C renal, 0.466 µM with A498 renal and above 1 µM with SF-295 CNS.

As to `O=C1CC2(CCN(Cc3ccccc3)CC2)C(=O)N1N1CCCCC1`, the TGI in the assay on OVCAR-8 ovarian, in the assay on SNB-19 CNS, in the assay with NCI-H522 lung, with BT-549 breast, in the assay with SK-MEL-2 melanoma and in the assay on NCI-H460 lung was above 100 µM throughout. Moreover, the TGI with SN12C renal, with A498 renal and in the assay on SF-295 CNS was above 100 µM each time.

As for `CC(C)C1OC(=O)C(Cc2ccccc2)N(C)C(=O)C(C(C)C)OC(=O)C(Cc2ccccc2)N(C)C(=O)C(C(C)C)OC(=O)C(Cc2ccccc2)N(C)C1=O` (configuration not stated), the TGI was 1.97 µM in the assay with OVCAR-8 ovarian; 2.41 µM in the assay on EKVX NSCLC; 2.18 µM in the assay on SNB-19 CNS; 2.12 µM in the assay with NCI-H522 lung; 3.01 µM with BT-549 breast; 1.36 µM in the assay on SK-MEL-2 melanoma. For the same compound, the TGI in the assay on NCI-H460 lung is 2.44 µM; in the assay with SN12C renal, 2.14 µM; in the assay with A498 renal, 6.53 µM; in the assay on SF-295 CNS, 1.79 µM.

Take `COC(=O)c1sc2c(c1C(=O)OC)C(=Nc1ccc(OC)cc1)SC2=Nc1ccc(OC)cc1`: the TGI in the assay on OVCAR-8 ovarian is 2.32 µM; in the assay on EKVX NSCLC, 3.02 µM; in the assay with SNB-19 CNS, 2.88 µM; in the assay with NCI-H522 lung it was 2.45 µM; in the assay on BT-549 breast it was 3.43 µM; in the assay with SK-MEL-2 melanoma, 1.48 µM. The TGI amounted to 2.79 µM in the assay with NCI-H460 lung, 1.94 µM in the assay on SN12C renal, 3.01 µM in the assay with A498 renal and 3.42 µM in the assay with SF-295 CNS.

Take `NC1CC(=O)c2c(I)sc(I)c21` (configuration not stated): the TGI in the assay with OVCAR-8 ovarian was above 55.4 µM; with EKVX NSCLC, 39.3 µM; in the assay on SNB-19 CNS, 46.9 µM; in the assay with NCI-H522 lung, 24.3 µM; in the assay with BT-549 breast, 37.4 µM; in the assay with SK-MEL-2 melanoma it was 36.2 µM. The TGI is 66.8 µM in the assay with NCI-H460 lung, above 60.6 µM in the assay on SN12C renal, 37.1 µM in the assay on A498 renal and 39.8 µM in the assay on SF-295 CNS.

On to `C=CCSC1=N/C(=C\c2ccc(C)cc2)C(=O)N1CC=C`, for which the TGI was above 100 µM with OVCAR-8 ovarian; 34.1 µM in the assay with EKVX NSCLC; above 100 µM in the assay on SNB-19 CNS; above 100 µM in the assay on NCI-H522 lung; 81.6 µM with BT-549 breast; 61 µM in the assay with SK-MEL-2 melanoma. The TGI in the assay with NCI-H460 lung was above 100 µM; with SN12C renal, 28.2 µM; in the assay with A498 renal, 51.8 µM; in the assay on SF-295 CNS, above 100 µM.

Regarding `O=C(OC1C#CCSCC#C/C=C\1)c1ccc2c(c1)C(=O)c1ccccc1C2=O` (configuration not stated), the TGI in the assay with OVCAR-8 ovarian is above 100 µM; in the assay on EKVX NSCLC, above 100 µM; in the assay with SNB-19 CNS, 59.7 µM; with NCI-H522 lung, 62.7 µM; in the assay on BT-549 breast it was 54.1 µM; with SK-MEL-2 melanoma, above 100 µM. Moreover, the TGI with NCI-H460 lung, in the assay with SN12C renal, in the assay with A498 renal and in the assay on SF-295 CNS was above 100 µM throughout.

`CC1(C)OCC(/C=C\C(O)CC2(C)OCCO2)CO1` (configuration not stated): the TGI in the assay with OVCAR-8 ovarian, in the assay on EKVX NSCLC, with SNB-19 CNS, in the assay on NCI-H522 lung, with BT-549 breast and in the assay on SK-MEL-2 melanoma was above 100 µM each time. Also, the TGI in the assay on NCI-H460 lung, in the assay with SN12C renal, in the assay on A498 renal and in the assay on SF-295 CNS was above 100 µM each time.

Regarding `N#CCCN(C(=O)Nc1ccc(NC(=O)N(CCC#N)c2ccccc2)cc1)c1ccccc1`, the TGI in the assay with OVCAR-8 ovarian, in the assay with EKVX NSCLC, in the assay with SNB-19 CNS, with NCI-H522 lung, in the assay with BT-549 breast and in the assay with SK-MEL-2 melanoma was above 100 µM each time. For the same compound, the TGI with NCI-H460 lung, in the assay on SN12C renal, in the assay on A498 renal and with SF-295 CNS was above 100 µM each time.

On to `Cc1c(CCCl)c(Cl)n2c(nc3ccccc32)c1C#N`, for which the TGI worked out at 2.38 µM in the assay on OVCAR-8 ovarian; 25.3 µM in the assay on EKVX NSCLC; 5.88 µM in the assay with SNB-19 CNS; 1.46 µM with NCI-H522 lung; 3.98 µM in the assay with BT-549 breast; 2.78 µM with SK-MEL-2 melanoma. The TGI with NCI-H460 lung was 1.69 µM; with SN12C renal, 1.5 µM; with A498 renal, 2.83 µM; in the assay on SF-295 CNS, 4.34 µM.

`Cc1nc2nnc(CCCCCCCCc3nnc4nc(C)[nH]n34)n2[nH]1`: the TGI in the assay with OVCAR-8 ovarian, in the assay with EKVX NSCLC, with SNB-19 CNS, in the assay on NCI-H522 lung, with BT-549 breast and in the assay on SK-MEL-2 melanoma was above 100 µM in each case. The TGI in the assay on NCI-H460 lung, with SN12C renal, in the assay with A498 renal and in the assay on SF-295 CNS was above 100 µM each time.

Consider `O=C(O)COc1c(Cl)cc(Cl)c(C(c2c(Cl)cc(Cl)c(OCC(=O)O)c2Cl)C(Cl)(Cl)Cl)c1Cl`, for which the TGI in the assay with OVCAR-8 ovarian is above 100 µM; in the assay on SNB-19 CNS it was above 100 µM; in the assay with NCI-H522 lung, above 100 µM; with BT-549 breast, 51.3 µM; in the assay on SK-MEL-2 melanoma, 42.2 µM; in the assay with NCI-H460 lung, 89.7 µM. Also, the values for the TGI in the assay on SN12C renal, with A498 renal and in the assay with SF-295 CNS were above 100 µM, above 100 µM and 51.9 µM, respectively.
